Measured values published in patent publication US12447153B2, “HER2 mutation inhibitors” (Array BioPharma Inc., priority 2021, dated 2025).

Columns and labels:
[1] = target: ErbB2 WT (Homo sapiens (Human), UniProt P04626); assay: ErbB Enzyme Assay (HTRF KinEASE-TK), Assay 2; format: biochemical
[2] = target: EGFR (Homo sapiens (Human), UniProt P00533); assay: ErbB Enzyme Assay (HTRF KinEASE-TK), Assay 3; format: biochemical
[3] = target: ErbB2 with Exon 20 YVMA insertion (HER2-YVMA) (Homo sapiens (Human), UniProt P04626, INS775YVMA); assay: Cellular Phosphorylation Assay, Assay 4 (constitutive ErbB2 phosphorylation, NIH 3T3 cells); format: cell-based
Sequence of ErbB2 with Exon 20 YVMA insertion (HER2-YVMA) (P04626 other isoform, or with tags, fused parts or gaps ins YVMA behind 775): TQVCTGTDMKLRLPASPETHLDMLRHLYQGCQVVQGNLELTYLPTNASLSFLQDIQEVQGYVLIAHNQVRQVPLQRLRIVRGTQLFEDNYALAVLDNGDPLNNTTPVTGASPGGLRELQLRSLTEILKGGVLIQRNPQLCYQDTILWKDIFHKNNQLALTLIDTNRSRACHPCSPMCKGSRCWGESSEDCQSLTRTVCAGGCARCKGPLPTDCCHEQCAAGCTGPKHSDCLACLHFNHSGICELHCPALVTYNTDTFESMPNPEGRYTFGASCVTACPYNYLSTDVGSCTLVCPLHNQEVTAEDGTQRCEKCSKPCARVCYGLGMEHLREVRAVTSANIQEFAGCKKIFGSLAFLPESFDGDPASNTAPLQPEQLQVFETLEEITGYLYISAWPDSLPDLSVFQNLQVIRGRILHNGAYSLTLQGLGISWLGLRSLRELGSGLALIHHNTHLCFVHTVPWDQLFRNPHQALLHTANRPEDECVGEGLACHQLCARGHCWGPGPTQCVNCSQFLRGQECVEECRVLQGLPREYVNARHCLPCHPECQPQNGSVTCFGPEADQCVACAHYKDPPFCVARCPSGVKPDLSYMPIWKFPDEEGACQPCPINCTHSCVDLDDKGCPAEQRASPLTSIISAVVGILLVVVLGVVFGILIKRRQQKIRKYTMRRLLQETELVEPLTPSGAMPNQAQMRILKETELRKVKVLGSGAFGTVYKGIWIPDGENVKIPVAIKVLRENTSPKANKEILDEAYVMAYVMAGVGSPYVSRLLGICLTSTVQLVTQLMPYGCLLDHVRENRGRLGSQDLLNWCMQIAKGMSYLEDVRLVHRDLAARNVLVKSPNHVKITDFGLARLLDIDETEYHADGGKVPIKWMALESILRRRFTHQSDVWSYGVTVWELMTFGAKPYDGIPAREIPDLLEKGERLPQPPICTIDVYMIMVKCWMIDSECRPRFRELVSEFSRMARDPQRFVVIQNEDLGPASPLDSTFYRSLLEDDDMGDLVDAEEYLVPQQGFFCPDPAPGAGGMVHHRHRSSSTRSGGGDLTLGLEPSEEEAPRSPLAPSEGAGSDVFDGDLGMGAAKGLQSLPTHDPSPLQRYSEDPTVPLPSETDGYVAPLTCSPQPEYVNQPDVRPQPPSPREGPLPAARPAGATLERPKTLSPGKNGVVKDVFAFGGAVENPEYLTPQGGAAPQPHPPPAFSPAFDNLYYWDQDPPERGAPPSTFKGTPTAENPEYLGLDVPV

[4] = target: EGFR wild type (EGFR WT) (Homo sapiens (Human), UniProt P00533); assay: Cellular Phosphorylation Assay, Assay 5 (EGF-stimulated EGFR phosphorylation, NIH 3T3 cells); format: cell-based
Sequence of EGFR wild type (EGFR WT) (P00533 25-1210): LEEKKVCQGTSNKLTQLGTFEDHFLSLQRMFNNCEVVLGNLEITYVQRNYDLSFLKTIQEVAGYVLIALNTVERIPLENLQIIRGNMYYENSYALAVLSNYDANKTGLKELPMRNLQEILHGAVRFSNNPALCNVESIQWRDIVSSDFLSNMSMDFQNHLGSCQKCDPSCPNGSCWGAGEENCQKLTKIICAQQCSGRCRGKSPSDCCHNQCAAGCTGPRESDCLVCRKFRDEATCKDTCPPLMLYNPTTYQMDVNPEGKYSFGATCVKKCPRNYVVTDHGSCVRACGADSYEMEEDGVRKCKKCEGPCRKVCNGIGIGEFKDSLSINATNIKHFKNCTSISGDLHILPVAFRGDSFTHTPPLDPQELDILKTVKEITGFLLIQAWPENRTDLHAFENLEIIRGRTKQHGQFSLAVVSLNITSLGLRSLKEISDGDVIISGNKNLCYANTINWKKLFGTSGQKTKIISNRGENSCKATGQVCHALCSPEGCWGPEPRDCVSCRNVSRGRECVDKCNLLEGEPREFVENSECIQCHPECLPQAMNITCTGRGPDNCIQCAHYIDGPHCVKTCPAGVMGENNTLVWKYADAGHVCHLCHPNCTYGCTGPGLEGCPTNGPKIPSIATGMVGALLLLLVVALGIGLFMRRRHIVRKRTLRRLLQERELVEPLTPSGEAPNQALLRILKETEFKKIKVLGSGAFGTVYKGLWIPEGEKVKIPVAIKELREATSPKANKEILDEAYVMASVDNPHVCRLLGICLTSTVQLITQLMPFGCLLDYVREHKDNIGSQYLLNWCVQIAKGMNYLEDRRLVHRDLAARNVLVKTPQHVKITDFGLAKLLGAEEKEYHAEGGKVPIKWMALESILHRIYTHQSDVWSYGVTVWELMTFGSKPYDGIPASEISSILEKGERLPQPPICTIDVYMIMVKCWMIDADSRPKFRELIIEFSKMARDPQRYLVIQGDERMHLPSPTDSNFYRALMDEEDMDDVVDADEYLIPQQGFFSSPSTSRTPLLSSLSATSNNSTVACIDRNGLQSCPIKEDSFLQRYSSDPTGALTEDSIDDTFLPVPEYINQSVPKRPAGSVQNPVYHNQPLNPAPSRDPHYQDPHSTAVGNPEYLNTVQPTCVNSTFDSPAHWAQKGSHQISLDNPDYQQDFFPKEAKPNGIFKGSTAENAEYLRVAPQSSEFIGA

[5] = target: BCRP (Homo sapiens (Human), UniProt Q9UNQ0); assay: BCRP MDCKII efflux assay (Assay 7); format: in vitro ADME; conditions: dog; efflux ratio Papp(B-A)/Papp(A-B), BCRP MDCKII cells; read-out: Assay 7 Pe Ratio
Description: Assay conditions included with and without the BCRP-specific inhibitor, KO143, at a concentration of 0.3 μM to ascertain the contribution of BCRP to the efflux value of the test compound.
Final organic concentration in the assay was 1%.

[6] = target: MDR1 (P-gp) (Homo sapiens (Human), UniProt P08183); assay: in vitro; conditions: pig, LLC-PK1
Sequence of MDR1 (P-gp) (P08183 whole entry): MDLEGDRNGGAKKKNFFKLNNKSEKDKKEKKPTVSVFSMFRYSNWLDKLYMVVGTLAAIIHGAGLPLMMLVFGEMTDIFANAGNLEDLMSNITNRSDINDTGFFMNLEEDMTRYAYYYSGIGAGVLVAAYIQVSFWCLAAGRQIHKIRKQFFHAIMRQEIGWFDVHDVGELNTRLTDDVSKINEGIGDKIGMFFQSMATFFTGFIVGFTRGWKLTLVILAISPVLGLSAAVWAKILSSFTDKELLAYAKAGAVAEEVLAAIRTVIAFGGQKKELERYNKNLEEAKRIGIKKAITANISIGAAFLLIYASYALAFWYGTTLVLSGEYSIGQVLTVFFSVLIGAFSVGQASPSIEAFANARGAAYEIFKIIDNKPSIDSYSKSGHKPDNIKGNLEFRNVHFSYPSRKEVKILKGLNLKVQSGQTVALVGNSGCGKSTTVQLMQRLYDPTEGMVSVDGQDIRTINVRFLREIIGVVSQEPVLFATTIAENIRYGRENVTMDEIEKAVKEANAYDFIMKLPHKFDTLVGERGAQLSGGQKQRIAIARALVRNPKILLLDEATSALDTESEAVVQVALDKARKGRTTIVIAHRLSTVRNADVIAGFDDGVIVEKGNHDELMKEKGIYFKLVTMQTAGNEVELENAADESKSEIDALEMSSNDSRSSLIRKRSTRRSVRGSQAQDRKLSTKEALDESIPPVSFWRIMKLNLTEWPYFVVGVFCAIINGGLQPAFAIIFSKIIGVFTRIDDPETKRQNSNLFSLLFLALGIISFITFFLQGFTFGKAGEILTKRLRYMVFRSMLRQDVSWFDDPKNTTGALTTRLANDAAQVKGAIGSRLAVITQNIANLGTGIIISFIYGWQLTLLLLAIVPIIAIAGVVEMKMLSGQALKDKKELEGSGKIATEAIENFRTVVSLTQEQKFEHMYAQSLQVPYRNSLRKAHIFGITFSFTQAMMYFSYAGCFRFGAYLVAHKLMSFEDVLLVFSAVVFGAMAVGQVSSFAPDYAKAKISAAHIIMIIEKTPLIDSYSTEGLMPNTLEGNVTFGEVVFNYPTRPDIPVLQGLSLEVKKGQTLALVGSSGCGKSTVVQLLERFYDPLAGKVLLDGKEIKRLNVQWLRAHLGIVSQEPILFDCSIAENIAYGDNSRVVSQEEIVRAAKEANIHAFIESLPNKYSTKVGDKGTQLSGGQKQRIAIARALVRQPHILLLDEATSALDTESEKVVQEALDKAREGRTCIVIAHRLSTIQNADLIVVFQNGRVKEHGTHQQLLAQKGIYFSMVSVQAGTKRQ

[7] = EGF-stimulated EGFR WT phosphorylation
[8] = cellular ErbB2 YVMA phosphorylation
[9] = cellular EGFR WT phosphorylation, EGF-stimulated

Sequence of EGFR (P00533 25-1210): as the sequence (P00533 25-1210) above

IC50 ([1]; ErbB2 WT enzyme)	IC50 ([2]; EGFR enzyme)	IC50 ([3]; ErbB2 YVMA phosphorylation)	IC50 [4, 7]	efflux ratio at 2 h, 1 µM [5]	efflux ratio at 2 h, 1 µM [6]	IC50 ([1]; ErbB2 WT enzyme assay)	IC50 ([2]; EGFR enzyme assay)	IC50 [3, 8]	IC50 [4, 9]	Structure (SMILES)
15.5 nM	550 nM	20.6 nM	4220 nM	2.8	1.2	–	–	–	–	C=CC(=O)N1C[C@H]2C[C@@H]1[C@H](c1ccc3ncnc(Nc4ccc(Oc5ccc6c(c5)ncn6C)c(C)c4F)c3n1)C2 (racemic) [Example 202, rac-1-((1R,4R,6R)-6-(4-((2-fluoro-3-methyl-4-((1-methyl-1H-benzo[d]imidazol-5-yl)oxy)phenyl)amino)pyrido[3,2-d]pyrimidin-6-yl)-2-azabicyclo[2.2.1]heptan-2-yl)prop-2-en-1-one]
177 nM	≥ 10000 nM	15.8 nM	≥ 5000 nM	1.6	0.9	–	–	–	–	C=CC(=O)N1CCN(c2ccc3ncnc(Nc4ccc(Oc5cnc6c(c5)ncn6C)c(C)c4F)c3n2)C[C@H]1C1CC1 [Example 165, (R)-1-(2-cyclopropyl-4-(4-((2-fluoro-3-methyl-4-((3-methyl-3H-imidazo[4,5-b]pyridin-6-yl)oxy)phenyl)amino)pyrido[3,2-d]pyrimidin-6-yl)piperazin-1-yl)prop-2-en-1-one]
–	–	–	–	3	1.6	206 nM	≥ 10000 nM	29.2 nM	≥ 5000 nM	C=CC(=O)N1CCCC(c2ccc3ncnc(Nc4cc(C)c(Oc5cnc6c(c5)ncn6C)cc4F)c3n2)CC1 (stereo not drawn) [Example 412]
17.4 nM	170 nM	4.2 nM	146 nM	4	1.4	–	–	–	–	C=CC(=O)N1CC[C@@H]2C[C@H]1CN2c1ccc2ncnc(Nc3ccc(Oc4ccn5ncnc5c4)c(C)c3F)c2n1 [Example 65, 1-((1S,5R)-6-(4-((4-([1,2,4]triazolo[1,5-a]pyridin-7-yloxy)-2-fluoro-3-methylphenyl)amino)pyrido[3,2-d]pyrimidin-6-yl)-2,6-diazabicyclo[3.2.1]octan-2-yl)prop-2-en-1-one]
18.8 nM	1460 nM	11.1 nM	1850 nM	1.9	0.8	–	–	–	–	C=CC(=O)N1C[C@H]2CC[C@@H]1C[C@@H]2c1ccc2ncnc(Nc3ccc(Oc4ccn5ncnc5c4)c(C)c3F)c2n1 (racemic) [Example 217, rac-1-((1R,4S,5S)-5-(4-((4-([1,2,4]triazolo[1,5-a]pyridin-7-yloxy)-2-fluoro-3-methylphenyl)amino)pyrido[3,2-d]pyrimidin-6-yl)-2-azabicyclo[2.2.2]octan-2-yl)prop-2-en-1-one]
519 nM	≥ 10000 nM	25.1 nM	≥ 5000 nM	1.7	0.9	–	–	–	–	C=CC(=O)N1CCN(c2ccc3ncnc(Nc4ccc(Oc5cnc6c(c5)ncn6C)c(C)c4F)c3n2)C[C@@H]1C1CC1 [Example 167, (S)-1-(2-cyclopropyl-4-(4-((2-fluoro-3-methyl-4-((3-methyl-3H-imidazo[4,5-b]pyridin-6-yl)oxy)phenyl)amino)pyrido[3,2-d]pyrimidin-6-yl)piperazin-1-yl)prop-2-en-1-one]
119 nM	≥ 10000 nM	20.3 nM	≥ 5000 nM	1.8	1.5	–	–	–	–	C=CC(=O)N1CC[C@H]2C[C@@H](c3ccc4ncnc(Nc5cc(C)c(Oc6ccc7c(c6)ncn7C)cc5F)c4n3)C[C@H]21 (racemic) [Example 37, 1-(5-(4-((2-fluoro-5-methyl-4-((1-methyl-1H-benzo[d]imidazol-5-yl)oxy)phenyl)amino)pyrido[3,2-d]pyrimidin-6-yl)hexahydrocyclopenta[b]pyrrol-1(2H)-yl)prop-2-en-1-one]
–	–	–	–	4.8	1.5	53.6 nM	8710 nM	38.5 nM	≥ 5000 nM	C=CC(=O)N1CCN(c2ccc3ncnc(Nc4cc(C)c(Oc5ccn6ncnc6c5)cc4F)c3n2)C[C@@H]1CC [Example 290]
–	–	–	–	3.8	1.1	101 nM	4830 nM	9.4 nM	2890 nM	C=CC(=O)N1CCN(c2ccc3ncnc(Nc4ccc(Oc5cnc6c(c5)ncn6C)c(C)c4F)c3n2)C[C@H]1C [Example 433]
–	–	–	–	6.2	1.6	122 nM	5050 nM	17.1 nM	≥ 5000 nM	C=CC(=O)N1CCN(c2ccc3ncnc(Nc4cc(C)c(Oc5cnc6c(c5)ncn6C)cc4F)c3n2)CC1(C)C [Example 357]
–	–	–	–	3.4	1.2	17.2 nM	7760 nM	33.9 nM	4040 nM	C=CC(=O)N1[C@H](C)CN(c2ccc3ncnc(Nc4cc(Cl)c(Oc5ccn6ncnc6c5)cc4F)c3n2)C[C@@H]1C [Example 265]

Structure (SMILES)	IC50 ([1]; ErbB2 WT enzyme)	IC50 ([2]; EGFR enzyme)	IC50 ([3]; ErbB2 YVMA phosphorylation)	IC50 [4, 7]	efflux ratio at 2 h, 1 µM [5]	efflux ratio at 2 h, 1 µM [6]	IC50 ([1]; ErbB2 WT enzyme assay)	IC50 ([2]; EGFR enzyme assay)	IC50 [3, 8]	IC50 [4, 9]
C=CC(=O)N1[C@@H]2CC[C@H]1CC(c1ccc3ncnc(Nc4ccc(Oc5ccn6ncnc6c5)c(C)c4F)c3n1)C2 (stereo partly drawn) [Example 369]	–	–	–	–	4.3	1.1	67.1 nM	2480 nM	22.4 nM	1360 nM
C=CC(=O)N1CC2CC(C1)N2c1ccc2ncnc(Nc3cc(C)c(Oc4ccc5c(c4)ncn5C)cc3F)c2n1 [Example 334]	–	–	–	–	1.9	3.7	55.6 nM	430 nM	21.8 nM	1080 nM
C=CC(=O)N1[C@@H]2CC[C@H]1[C@H](c1ccc3ncnc(Nc4ccc(Oc5ccn6ncnc6c5)c(C)c4)c3n1)C2 (racemic) [Example 220, rac-1-((1 S,2R,4R)-2-(4-((4-([1,2,4]triazolo[1,5-a]pyridin-7-yloxy)-3-methylphenyl)amino)pyrido[3,2-d]pyrimidin-6-yl)-7-azabicyclo[2.2.1]heptan-7-yl)prop-2-en-1-one]	17.9 nM	412 nM	18.5 nM	≥ 5000 nM	2.2	1.3	–	–	–	–
C=CC(=O)N1C2CC1CN(c1ccc3ncnc(Nc4cc(C)c(Oc5ccn6ncnc6c5)cc4F)c3n1)C2 [Example 43, 1-(3-(4-((4-([1,2,4]triazolo[1,5-a]pyridin-7-yloxy)-2-fluoro-5-methylphenyl)amino)pyrido[3,2-d]pyrimidin-6-yl)-3,6-diazabicyclo[3.1.1]heptan-6-yl)prop-2-en-1-one]	120 nM	≥ 10000 nM	21.3 nM	≥ 5000 nM	4.1	3	–	–	–	–
C=CC(=O)N1[C@@H]2CC[C@H]1[C@H](c1ccc3ncnc(Nc4cc(C)c(Oc5ccc6c(c5)ncn6C)cc4F)c3n1)C2 [Example 393]	–	–	–	–	2.2	1.8	13.4 nM	715 nM	15.4 nM	≥ 5000 nM
C=CC(=O)N1[C@@H]2CC[C@H]1C(c1ccc3ncnc(Nc4ccc(Oc5ccn6ncnc6c5)c(C)c4)c3n1)C2 (single isomer, unassigned) [Example 232]	10.5 nM	203 nM	31.9 nM	≥ 5000 nM	2.6	0.8	–	–	–	–
